In the supplement of paper PMC11451515:

Test system: P12-Ichikawa
Test: cell viability relative to DMSO control; higher = less cytotoxic
Details: 48 h
How it was run: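 Viability, reported as a per-plate percentage of DMSO wells with cell-free wells as background, came from CellTiter-Glo One luminescence. Reading took place after 48 h at 37°C. Before that, NOMO1 or SEM (500 cells/well) or P12-Ichikawa (1000 cells/well) leukemia cells, adapted for at least four passages in each medium, were seeded in 1536-well plates (5 μl) and pin-dosed with library compounds in DMSO, 47 μM to 0.79 nM over 11 threefold points.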

[1] = HPLM + 10% dialyzed FBS, 0.000781 µM
[2] = HPLM + 10% dialyzed FBS, 0.00234 µM
[3] = HPLM + 10% dialyzed FBS, 0.00702 µM
[4] = HPLM + 10% dialyzed FBS, 0.0211 µM
[5] = HPLM + 10% dialyzed FBS, 0.0632 µM
[6] = HPLM + 10% dialyzed FBS, 0.19 µM
[7] = HPLM + 10% dialyzed FBS, 0.569 µM
[8] = HPLM + 10% dialyzed FBS, 1.71 µM
[9] = HPLM + 10% dialyzed FBS, 5.12 µM
[10] = HPLM + 10% dialyzed FBS, 15.4 µM
[11] = HPLM + 10% dialyzed FBS, 46.1 µM
[12] = RPMI 5 mM glucose + 10% FBS, 0.000781 µM
[13] = RPMI 5 mM glucose + 10% FBS, 0.00234 µM
[14] = RPMI 5 mM glucose + 10% FBS, 0.00702 µM
[15] = RPMI 5 mM glucose + 10% FBS, 0.0211 µM
[16] = RPMI 5 mM glucose + 10% FBS, 0.0632 µM
[17] = RPMI 5 mM glucose + 10% FBS, 0.19 µM
[18] = RPMI 5 mM glucose + 10% FBS, 0.569 µM
[19] = RPMI 5 mM glucose + 10% FBS, 1.71 µM
[20] = RPMI 5 mM glucose + 10% FBS, 5.12 µM
[21] = RPMI 5 mM glucose + 10% FBS, 15.4 µM
[22] = RPMI 5 mM glucose + 10% FBS, 46.1 µM
[23] = RPMI 5 mM glucose + 10% dialyzed FBS, 0.000781 µM
[24] = RPMI 5 mM glucose + 10% dialyzed FBS, 0.00234 µM
[25] = RPMI 5 mM glucose + 10% dialyzed FBS, 0.00702 µM
[26] = RPMI 5 mM glucose + 10% dialyzed FBS, 0.0211 µM
[27] = RPMI 5 mM glucose + 10% dialyzed FBS, 0.0632 µM
[28] = RPMI 5 mM glucose + 10% dialyzed FBS, 0.19 µM
[29] = RPMI 5 mM glucose + 10% dialyzed FBS, 0.569 µM
[30] = RPMI 5 mM glucose + 10% dialyzed FBS, 1.71 µM
[31] = RPMI 5 mM glucose + 10% dialyzed FBS, 5.12 µM
[32] = RPMI 5 mM glucose + 10% dialyzed FBS, 15.4 µM
[33] = RPMI 5 mM glucose + 10% dialyzed FBS, 46.1 µM

| Structure (SMILES) | cell viability [1] | cell viability [2] | cell viability [3] | cell viability [4] | cell viability [5] | cell viability [6] | cell viability [7] | cell viability [8] | cell viability [9] | cell viability [10] | cell viability [11] | cell viability [12] | cell viability [13] | cell viability [14] | cell viability [15] | cell viability [16] | cell viability [17] | cell viability [18] | cell viability [19] | cell viability [20] | cell viability [21] | cell viability [22] | cell viability [23] | cell viability [24] | cell viability [25] | cell viability [26] | cell viability [27] | cell viability [28] | cell viability [29] | cell viability [30] | cell viability [31] | cell viability [32] | cell viability [33] |
| --- | --- | --- | --- | --- | --- | --- | --- | --- | --- | --- | --- | --- | --- | --- | --- | --- | --- | --- | --- | --- | --- | --- | --- | --- | --- | --- | --- | --- | --- | --- | --- | --- | --- |
| C[C@]\1(CCS\C(=N1)N)C2=CC(=C(F)C=C2F)C3=CN=CN=C3 | 98.2% | 101% | 112% | 103% | 110% | 115% | 115% | 122% | 106% | 15.2% | 2.53% | 99.3% | 103% | 119% | 117% | 113% | 114% | 121% | 113% | 117% | 30.2% | 8.85% | 92.1% | 109% | 104% | 109% | 110% | 108% | 101% | 98.6% | 99.8% | 62% | 13.4% |
| Clc1ccc(C2(c3ccc(-c4cn[nH]c4)cc3)CCNCC2)cc1 | 91.3% | 94.4% | 101% | 96.8% | 101% | 98% | 92.3% | 89.3% | 73.2% | 57.5% | 59.9% | 86.9% | 94.2% | 85.9% | 91% | 89% | 83.1% | 78.8% | 75.4% | 65.9% | 43.1% | 44.1% | 91% | 92.2% | 90.7% | 87.5% | 95% | 93.5% | 91.8% | 78.7% | 68.5% | 49.7% | 49.7% |
| COc1cc2nccc(Oc3ccc(NC(=O)C4(C(=O)Nc5ccc(F)cc5)CC4)cc3)c2cc1OC | 114% | 91.5% | 122% | 111% | 115% | 111% | 118% | 113% | 96.3% | 71.7% | 34% | 112% | 112% | 116% | 117% | 119% | 116% | 112% | 114% | 106% | 82.5% | 19.7% | 106% | 118% | 120% | 121% | 123% | 124% | 113% | 113% | 101% | 60.5% | 28.9% |
| CC(C)(C)OC(=O)CN(Cc1ccc(Cl)cc1)Cc1ccc([N+](=O)[O-])s1 | 99.7% | 107% | 107% | 101% | 99% | 98.3% | 96.2% | 96.5% | 91.6% | 93% | 73.6% | 92.8% | 99.2% | 89% | 97.1% | 88.2% | 99.2% | 93.3% | 99.9% | 92.8% | 88.9% | 69.3% | 99% | 90.7% | 95.9% | 92% | 94.9% | 92% | 87.9% | 86.6% | 82.4% | 91.2% | 62.6% |
| NC(=O)c1ccc(-c2nc(-c3ccc4c(c3)OCCO4)c(-c3ccccn3)[nH]2)cc1 | 120% | 125% | 125% | 118% | 122% | 119% | 124% | 122% | 117% | 117% | 111% | 122% | 126% | 115% | 129% | 117% | 115% | 118% | 131% | 116% | 114% | 110% | 121% | 114% | 120% | 126% | 126% | 121% | 121% | 110% | 127% | 117% | 106% |
| CCNC(=O)C[C@@H]1\N=C(C2=CC=C(Cl)C=C2)/C3=C(C=CC(=C3)OC)[N]4C(=NN=C14)C | 106% | 115% | 106% | 114% | 105% | 103% | 92.1% | 83.5% | 78.2% | 50.1% | 17% | 114% | 111% | 127% | 106% | 105% | 111% | 101% | 84.7% | 76% | 56.2% | 37.8% | 115% | 118% | 115% | 117% | 106% | 106% | 95.7% | 84% | 75.8% | 60.4% | 35.9% |
| CCCCN(CCCC)CCC(O)c1cc2c(Cl)cc(Cl)cc2c2cc(C(F)(F)F)ccc12 (stereo unspecified) | 120% | 122% | 118% | 120% | 130% | 131% | 130% | 131% | 131% | 124% | 121% | 115% | 126% | 119% | 118% | 135% | 147% | 141% | 150% | 132% | 105% | 88.3% | 108% | 110% | 114% | 117% | 120% | 125% | 130% | 138% | 131% | 141% | 105% |
| Cc1ccc(NC(=O)c2ccc(CN3CCN(C)CC3)cc2)cc1Nc1nccc(-c2cccnc2)n1 | 93.8% | 95.7% | 105% | 97.9% | 113% | 103% | 112% | 109% | 110% | 109% | 92.7% | 98.2% | 107% | 101% | 96.5% | 115% | 113% | 114% | 109% | 103% | 105% | 100% | 102% | 107% | 108% | 111% | 109% | 113% | 115% | 104% | 97.6% | 112% | 106% |
| CN(N=O)C(=O)N[C@H]1C(O)OC(CO)[C@@H](O)[C@@H]1O (stereo partly specified) | 91.5% | 84.9% | 82.8% | 84.2% | 89.2% | 81.9% | 85.8% | 82.8% | 84.2% | 60.5% | 83% | 83.3% | 84.2% | 76.3% | 75.8% | 81.3% | 85.2% | 74.2% | 87.6% | 72.8% | 78.5% | 83.7% | 70.2% | 81.9% | 83.9% | 74.1% | 79.6% | 76.6% | 80.2% | 81.7% | 71.3% | 71% | 77.5% |
| CC[C@]1(O)C[C@H]2CN(CCC3=C([NH]C4=C3C=CC=C4)[C@@](C2)(C(=O)OC)C5=CC6=C(C=C5OC)N(C=O)[C@H]7[C@](O)([C@H](OC(C)=O)[C@]8(CC)\C=C/C[N@@]9CC[C@]67[C@H]89)C(=O)OC)C1 | 118% | 117% | 119% | 82.3% | 21.6% | 17.7% | 11% | 10.2% | 11.3% | 9.28% | 8.54% | 115% | 109% | 112% | 75.1% | 19.5% | 15.9% | 9.98% | 8.03% | 8.69% | 8.09% | 6.94% | 105% | 108% | 110% | 106% | 35.6% | 34.6% | 20.5% | 12% | 12.1% | 12.8% | 12.6% |
| C[C@@H]1CC[C@@]2(OC1)O[C@H]3C[C@H]4[C@@H]5C/C=C6/C[C@H](CC[C@]6(C)[C@H]5CC[C@]4(C)[C@H]3[C@@H]2C)O[C@@H]7O[C@H](CO)[C@@H](O[C@@H]8O[C@@H](C)[C@H](O)[C@@H](O)[C@H]8O)[C@H](O)[C@H]7O[C@@H]9O[C@@H](C)[C@H](O)[C@@H](O)[C@H]9O | 124% | 128% | 119% | 131% | 129% | 130% | 136% | 134% | 132% | 116% | 7.3% | – | – | – | – | – | – | – | – | – | – | – | – | – | – | – | – | – | – | – | – | – | – |
| Nc1nc(-c2nn(Cc3ccccc3F)c3ncccc23)nc(N)c1N1CCOCC1 | 92.3% | 100% | 105% | 111% | 111% | 112% | 110% | 109% | 109% | 107% | 95.9% | 93.1% | 97.9% | 98.8% | 116% | 107% | 112% | 110% | 109% | 107% | 111% | 107% | 86.1% | 101% | 100% | 108% | 104% | 92.1% | 107% | 101% | 104% | 103% | 87.3% |
| COc1cc2c(Nc3ccc(NC(=O)c4ccccc4)cc3)ncnc2cc1OCCCN1CCOCC1 | 116% | 123% | 122% | 125% | 131% | 133% | 135% | 125% | 45% | 15% | 15.6% | – | – | – | – | – | – | – | – | – | – | – | – | – | – | – | – | – | – | – | – | – | – |
| CO/N=C(/C(=O)N[C@@H]1C(=O)N2C(C(=O)O)=C(Cn3ccc(=N)n3CCO)CS[C@H]12)c1csc(N)n1 | 121% | 123% | 125% | 136% | 135% | 126% | 134% | 126% | 141% | 137% | 125% | – | – | – | – | – | – | – | – | – | – | – | – | – | – | – | – | – | – | – | – | – | – |
